Measurements published in US8815900B2, “Compounds and compositions for reducing lipid levels” (CVI Pharmaceuticals Limited, priority 2007, dated 2014).
“And” between values parts separate entries of the source, which are not always exact repeats. Equal entries are not always repeated.

Key:
[1] = Pharmacokinetics of CRDL in male hamsters following intravenous and oral administration; assay type: in vivo; details: for F: PO (20 mg/kg) vs IV (2 mg/kg)
Experimental: The plasma concentration of CRDL was determined in male hamsters following intravenous or oral administration. Hamsters were given CRDL at 2 mg/kg i.v. or 20 mg/kg p.o. Blood samples were collected at the indicated time points and the plasma was isolated.

[2] = tested on: hypercholesterolemic hamsters; assay: In vivo lipid lowering of (14R,13S)-CRDL in hamsters on high cholesterol diet; parameters: species or system Golden Syrian male hamsters; details: 10 mg/kg daily i.p., 17 days
Experimental: In another experiment, 18 Golden Syrian male hamsters under a high cholesterol (HC) diet were divided into two treatment groups of i.p. One group was treated with (14R,13S)-CRDL at a daily dose of 10 mg/kg and the control group received equal amount of vehicle.
The HC diet markedly damaged the liver function of the hamsters, which was evident by elevated alanine aminotransaminase (ALT) and aspartate aminotransaminase (AST) in blood. (14R,13S)-CRDL treatment ameliorated the liver function under the HC diet and lowered the serum level of ALT by 60% and lowered the serum level of AST by 30% compared to control (FIG. 10B).

[3] = tested on: LDLR mRNA expression in HepG2 cells; assay: LDLR mRNA expression in HepG2 cells, semi-quantitative RT-PCR; assay type: cell-based, Human; details: 8 hours, indicated doses, corrected by GAPDH mRNA (FIG. 3)
Experimental: HepG2 cells obtained from American Tissue Culture Collection (Manassas, Va., USA) were seeded in 6-well culture plates at a density of 0.8×10^6 cells/well cultured in EMEM containing 0.5% FBS and were treated with each purified compound at indicated doses for 8 hours. Total RNA was isolated, and 2 μg per sample was reverse transcribed with random primers using M-MLV (Promega) at 37° C. for 1 hour. PCR was carried out at 94° C. for 30 sec, 60° C. for 30 sec, and 72° C. for 30 sec with initial activation of the enzyme at 94° C. for 1 minute. Thirty cycles were performed for LDLR and GAPDH. PCR was performed using primers HLDLR-up and HLDLR-lo for LDLR and primers HGAPDH-up and HGAPDH-lo for GAPDH. The PCR products were separated on a 1% agarose gel and the band intensity was quantitated. LDLR mRNA levels were corrected by measuring GAPDH mRNA levels.
After the treatment, a portion of cells was harvested for total RNA, and another portion of cells was used for TG measurement. The LDLR mRNA levels were assessed by semi quantitative RT-PCR, and the cellular TG content was determined as described above.

[4] = tested on: LDLR ligand uptake activity in HepG2 cells; assay: DiI-LDL uptake (LDLR ligand uptake activity) in HepG2 cells; assay type: cell-based, Human; details: 20 hours, B, compound dose ≦ 40 μM; note: key: +: slightly increased fluorescent intensity over control; ++: modestly increased fluorescent intensity over control; +++: strongly increased fluorescent intensity over control
Experimental: HepG2 cells (2×10^5 cells/well) in 24-well culture plates were treated with various compounds at indicated concentrations for 20 hours. The fluorescent 1,1′-dioctadecyl-3,3,3′,3′-tetramethylindocarbocyanin perchlorate (DiI-LDL) (Biomedical Technologies, Stoughton, Mass.) at a concentration of 2 μg/mL was added to cells at the end of treatment. After 4 hours, the medium was removed, cells were washed with cold PBS, and were examined immediately under a fluorescent microscope (Nikon) at 200× amplification. The fluorescent intensity in compound-treated cells was compared to that in untreated control cells. […] In these experiments berberine chloride was used for comparison.

[5] = IV (2 mg/kg), individual hamsters H1-H3, 2 mg/kg
[6] = PO (20 mg/kg), individual hamsters H4-H6, 20 mg/kg
[7] = HC diet, compared to untreated group

COc1cc2c(cc1OC)[C@H]1[C@@H](C)c3ccc(OC)c(OC)c3CN1CC2 [CRDL, 14R,13S-(+)-corydaline]
Concentration in plasma ([1]; IV 2 mg/kg, 0.083 hr, individual hamsters H1-H3, 2 mg/kg): 0.62133 µg/mL and 0.52038 µg/mL and 0.64116 µg/mL | Concentration in plasma ([1]; IV 2 mg/kg, 0.083 hr, mean): 0.59429 µg/mL | Concentration in plasma ([1]; IV 2 mg/kg, 0.25 hr, individual hamsters H1-H3, 2 mg/kg): 0.25556 µg/mL and 0.35021 µg/mL and 0.31896 µg/mL | Concentration in plasma ([1]; IV 2 mg/kg, 0.25 hr, mean): 0.30825 µg/mL | Concentration in plasma ([1]; IV 2 mg/kg, 0.5 hr, individual hamsters H1-H3, 2 mg/kg): 0.12495 µg/mL and 0.16587 µg/mL and 0.13079 µg/mL | Concentration in plasma ([1]; IV 2 mg/kg, 0.5 hr, mean): 0.14054 µg/mL | Concentration in plasma ([1]; IV 2 mg/kg, 1 hr, individual hamsters H1-H3, 2 mg/kg): 0.06071 µg/mL and 0.06978 µg/mL and 0.06909 µg/mL | Concentration in plasma ([1]; IV 2 mg/kg, 1 hr, mean): 0.06653 µg/mL | Concentration in plasma ([1]; IV 2 mg/kg, 2 hr, individual hamsters H1-H3, 2 mg/kg): 0.02392 µg/mL and 0.01937 µg/mL and 0.02799 µg/mL | Concentration in plasma ([1]; IV 2 mg/kg, 2 hr, mean): 0.02376 µg/mL | Concentration in plasma ([1]; IV 2 mg/kg, 6 hr, individual hamsters H1-H3, 2 mg/kg): 0.00634 µg/mL and 0.00476 µg/mL and 0.00467 µg/mL | Concentration in plasma ([1]; IV 2 mg/kg, 6 hr, mean): 0.00525 µg/mL | Concentration in plasma ([1]; IV 2 mg/kg, 24 hr, individual hamsters H1-H3): BLQ | Tmax ([1]; IV (2 mg/kg), individual hamsters H1-H3): 0.08 h | AUC(0-t) [1, 5]: 0.36446 µg·h/mL and 0.33591 µg·h/mL and 0.33684 µg·h/mL | AUC(0-∞) [1, 5]: 0.374 µg·h/mL and 0.351 µg·h/mL and 0.345 µg·h/mL | CLz [1, 5]: 5.35 L/h/kg and 5.70 L/h/kg and 5.80 L/h/kg | Cmax [1, 5]: 0.64116 µg/mL and 0.62133 µg/mL and 0.52038 µg/mL | MRT(0-∞) [1, 5]: 0.98 h and 1.17 h and 0.94 h | Vz [1, 5]: 10.44 L/kg and 13.64 L/kg and 9.96 L/kg | t1/2z [1, 5]: 1.35 h and 1.66 h and 1.19 h | AUC(0-t) ([1]; IV (2 mg/kg), mean): 0.34574 µg·h/mL | AUC(0-∞) ([1]; IV (2 mg/kg), mean): 0.357 µg·h/mL | Cmax ([1]; IV (2 mg/kg), mean): 0.59429 µg/mL | MRT(0-∞) ([1]; IV (2 mg/kg), mean): 1.03 h | Tmax ([1]; IV (2 mg/kg), mean): 0.08 h | Vz ([1]; IV (2 mg/kg), mean): 11.35 L/kg | t1/2z (half life) ([1]; IV (2 mg/kg), mean): 1.4 h | CLz (clearance) ([1]; IV (2 mg/kg), mean, 2 mg/kg): 5.6 L/h/kg and 5.62 L/h/kg | Concentration in plasma ([1]; PO 20 mg/kg, 0.25 hr, individual hamsters H4-H6, 20 mg/kg): 1.26321 µg/mL and 0.89564 µg/mL and 1.30839 µg/mL | Concentration in plasma ([1]; PO 20 mg/kg, 0.25 hr, mean): 1.15575 µg/mL | Concentration in plasma ([1]; PO 20 mg/kg, 0.75 hr, individual hamsters H4-H6, 20 mg/kg): 0.36971 µg/mL and 0.16419 µg/mL and 0.21742 µg/mL | Concentration in plasma ([1]; PO 20 mg/kg, 0.75 hr, mean): 0.25044 µg/mL | Concentration in plasma ([1]; PO 20 mg/kg, 1 hr, individual hamsters H4-H6, 20 mg/kg): 0.25454 µg/mL and 0.14676 µg/mL and 0.19983 µg/mL | Concentration in plasma ([1]; PO 20 mg/kg, 1 hr, mean): 0.20037 µg/mL | Concentration in plasma ([1]; PO 20 mg/kg, 2 hr, individual hamsters H4-H6, 20 mg/kg): 0.09897 µg/mL and 0.06278 µg/mL and 0.08127 µg/mL | Concentration in plasma ([1]; PO 20 mg/kg, 2 hr, mean): 0.08101 µg/mL | Concentration in plasma ([1]; PO 20 mg/kg, 6 hr, individual hamsters H4-H6, 20 mg/kg): 0.01454 µg/mL and 0.00966 µg/mL and 0.02083 µg/mL | Concentration in plasma ([1]; PO 20 mg/kg, 6 hr, mean): 0.01501 µg/mL | Concentration in plasma ([1]; PO 20 mg/kg, 8 hr, individual hamsters H4-H6, 20 mg/kg): 0.01093 µg/mL and 0.0068 µg/mL and 0.01854 µg/mL | Concentration in plasma ([1]; PO 20 mg/kg, 8 hr, mean): 0.01209 µg/mL | Concentration in plasma ([1]; PO 20 mg/kg, 24 hr, individual hamsters H4-H6, 20 mg/kg): 0.00341 µg/mL and 0.00264 µg/mL and 0.00312 µg/mL | Concentration in plasma ([1]; PO 20 mg/kg, 24 hr, mean): 0.00304 µg/mL | F ([1]; individual hamsters H4-H6): 34.56% and 22.28% and 33.19% | F ([1]; mean): 30.01% | Tmax ([1]; PO (20 mg/kg), individual hamsters H4-H6): 0.25 h | AUC(0-t) [1, 6]: 1.18819 µg·h/mL and 0.75688 µg·h/mL and 1.15455 µg·h/mL | AUC(0-∞) [1, 6]: 1.23 µg·h/mL and 0.795 µg·h/mL and 1.18 µg·h/mL | Cmax [1, 6]: 1.26321 µg/mL and 0.89564 µg/mL and 1.30839 µg/mL | MRT(0-∞) [1, 6]: 3.41 h and 3.96 h and 3.37 h | t1/2z [1, 6]: 8.94 h and 10.13 h and 6.43 h | AUC(0-t) ([1]; PO (20 mg/kg), mean): 1.03321 µg·h/mL | AUC(0-∞) ([1]; PO (20 mg/kg), mean): 1.07 µg·h/mL | Cmax ([1]; PO (20 mg/kg), mean): 1.15575 µg/mL | MRT(0-∞) ([1]; PO (20 mg/kg), mean): 3.58 h | Tmax ([1]; PO (20 mg/kg), mean): ~0.25 h | t1/2z ([1]; PO (20 mg/kg), mean): 8.50 h | adverse effects during the drug treatment [2]: no adverse effects were observed | blood level of glucose ([2]; HC diet): not changed | blood level of urea nitrogen (BUN) ([2]; HC diet): not changed | lowering of serum level of ALT ([2]; HC diet, compared to control): 60% | lowering of serum level of AST ([2]; HC diet, compared to control): 30% | reduction of plasma TC [2, 7]: 41.9% | reduction of plasma TG [2, 7]: 46.0% | reduction of plasma non-HDL-c [2, 7]: 50% | reduction of level of creatinine (CREA) ([2]; HC diet, p<0.001): 20% | LDLR mRNA expression [3]: potent and dose-dependent effects | Activity on DiI-LDL uptake [4]: ++
